Experimental data: patent US20160206539A1, “COMPOSITION FOR SKIN AND SCALP HEALTH” (CONOPCO, INC., d/b/a UNILEVER, priority 2013, published 2016)

Experiments:
[1] = test system: Neonatal Human Epidermal Melanocytes (NHEM) and HaCat; assay: Reduction in melanin content assay (MCA) in melanocyte/keratinocyte co-culture; conditions: 72 hours treatment, relative to vehicle control
[2] = test system: Xanthomonas oryzae; conditions: dilute solution sprayed on rice inoculated with Xanthomonas oryzae; cited from earlier work

| SMILES | Reduction in melanin content ([1]; 0.00014 wt % active (Example A)) | Decrease of infection on the leaves [2] | Reduction in melanin content ([1]; 0.0005 wt % active (Example 1)) | Reduction in melanin content ([1]; 0.00075 wt % active (Example 2)) | Reduction in melanin content ([1]; 0.001 wt % active (Example 3)) |
| --- | --- | --- | --- | --- | --- |
| CCc1ccc(O)cc1O [Ethyl resorcinol, reference compound] | 21.5% |  |  |  |  |
| C=C1C(=O)OC2C[C@]3(C)C(CC12)C(=C)C(O)C[C@H]3O (some centres unmarked) [Granilin] |  | about 75% | 30.4% | 47.6% | 52.3% |
